The values below come from paper PMC6273072, “Identification of a New Morpholine Scaffold as a P2Y12 Receptor Antagonist” (Molecules, 2016).

Several values for one entry are separate records, joined by “and”; a condition that tells them apart may be missing. Equal values may be shown once.

For data set [1], the system named is ADP-induced platelet aggregation. The data set is described as follows: Inhibition of ADP-induced platelet aggregation, 96-well light transmission aggregometry. To be noted: for IC50: 20 μM ADP; for effect of pre-incubation / time on inhibition of ADP-induced platelet aggregation, in words: data not shown. The data set is classed as cell-based, human. As for the experimental part:
Platelets were isolated from 400 mL whole blood containing 56 mL of CPDA-1 anticoagulant purchased from Chung-Nam Blood Center (Daejeon, South Korea) by centrifugation at 260× g for 5 min. The resultant platelet-rich plasma was centrifuged at 370× g for 6 min, and the platelet pellet (10^9/mL) was resuspended in 45 mL plasma and stabilized by agitation for 1 h at 22 °C in blood reservoir. The product was used for experiments within 24 h. Platelet concentrate (PC) was transferred to a new 50-mL Falcon tube and the number of platelets was counted using the ABC Vet blood counter (ABX Diagnostics, Montpellier, France). A 30-mL volume of PCs from the same donor was centrifuged at 1500× g for 10 min at room temperature to obtain platelet-poor plasma (PPP). The platelet count was adjusted to 3–4 × 10^8/mL by diluting with PPP.
Inhibition of ADP-induced aggregation was assessed in a Costar 96-well flat-bottom plate (Sigma-Aldrich, St. Louis, MO, USA) at room temperature. A 188-µL volume of the diluted platelet was added to each well of the plate along with 2 µL of test compound dissolved in dimethyl sulfoxide (DMSO). The reagents were mixed by placing the plate on a shaker at 1050 rpm for 1 min. A 10-µL volume of 400 μM ADP (final concentration: 20 μM) was added to the wells, and after additional shaking at room temperature for 3 min, the absorption of the samples was read at 595 nm on a Softmax microplate reader (Molecular Devices, Sunnyvale, CA, USA). A dose-response curve was generated using serial dilutions of ADP by adding the vehicle DMSO instead of antagonists in order to calculate the half-maximal effective concentration (EC50) of ADP. Inhibition of aggregation was determined as the increase in absorption at 595 nm after 3 min of incubation relative to absorption values of control preparations (0 and 20 μM ADP without antagonists). Sigmoidal dose-response curves and half-maximal inhibitory concentration (IC50) were derived by non-linear regression analysis using Prism 5.01 software (GraphPad, San Diego, CA, USA).

A further data set concerns the target T1, human P2Y1 receptor (Homo sapiens, UniProt P47900).
T1 construct: expressed in transfected cells
The data set is described as follows: P2Y1-mediated Ca2+ mobilization in NIH3T3-P2Y1 + Gq cells (FLIPR). The data set is classed as cell-based. To be noted: for inhibitory effect at P2Y1 receptor, in words: up to 100 μM. The protocol:
Intracellular Ca^2+ mobilization was analyzed using the FLIPR 5 assay kit as previously described. Briefly, pDisplay-human P2Y1 DNA clone and pcDNA-Gq DNA clone were stably expressed in NIH3T3 cells. NIH3T3-P2Y1 + Gq cells (3 × 10^5 cells/mL) were seeded in a 96-well plate and allowed to adhere overnight. An equal volume of FLIPR 5 assay kit loading buffer (Molecular Devices) was added directly to the culture medium for 1 h at room temperature, followed by 20-min incubation after adding the test compounds. Changes in intracellular Ca^2+ were measured with a FlexStation II scanning fluorometer (Molecular Devices).
(A change in cytosolic calcium serves as a functional read-out for many receptors and channels.)

The target in data set [2] is T2, rhP2Y12 receptor (Homo sapiens, UniProt Q9H244).
T2 construct: expressed in transfected cells
T2 sequence (Q9H244 whole entry): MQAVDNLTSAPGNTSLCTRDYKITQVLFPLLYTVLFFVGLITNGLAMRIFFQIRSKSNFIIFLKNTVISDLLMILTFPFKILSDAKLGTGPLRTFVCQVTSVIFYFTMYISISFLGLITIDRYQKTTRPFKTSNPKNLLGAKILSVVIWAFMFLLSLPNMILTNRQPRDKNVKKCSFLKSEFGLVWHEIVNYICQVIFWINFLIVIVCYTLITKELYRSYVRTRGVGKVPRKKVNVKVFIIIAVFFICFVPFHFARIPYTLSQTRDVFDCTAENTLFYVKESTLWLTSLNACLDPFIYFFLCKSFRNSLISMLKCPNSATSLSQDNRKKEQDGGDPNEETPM
As to the kind of experiment: rhP2Y12 receptor binding assay with [3H]-2-MeSADP (HEK293T membranes). As to conditions: for IC50: 1 nM [3H]-2-MeSADP, HEK293T-rhP2Y12 membranes. As for the experimental part:
(§1) The pDisplay-human P2Y12 DNA clone and pDisplay-human P2Y13 DNA clone were stably expressed in HEK293T and COS-7 cells, respectively; recombinant human (rh)P2Y12- and rhP2Y13-expressing cells were resuspended in hypotonic buffer consisting of 10 mM HEPES, 10 mM NaCl, 1 mM EDTA, 1 mM EGTA (pH 7.4), and protease inhibitor cocktail. Following 15-min incubation on ice, cells were homogenized on ice using a glass/teflon homogenizer (1000 rpm, 10 strokes). The homogenate was centrifuged at 500 × g for 15 min and the supernatant was centrifuged at 100,000× g for 30 min. The membrane pellet was adjusted to 1 mg/mL with membrane buffer consisting of 10 mM HEPES, 5 mM KCl, and 130 mM NaCl (pH 7.4) and stored at −80 °C. A 100-μL volume of 0.2 mg/mL membrane protein was added to each well of a 96-well plate along with 25 μL of test compound and [3H]2-MeSADP or [3H]ADP for a total reaction volume of 0.15 mL/well. The plate was incubated for 1 h at room temperature. The reaction was terminated by passing the solution through a GF/B filter presoaked with 0.1% polyethyleneimine using a 96-well cell harvester. […] Radioactivity of the P2Y12 receptor or P2Y13 receptor bound to the membrane were measured using a scintillation TopCount instrument (PerkinElmer, Boston, MA, USA). […] Percent inhibition of binding was calculated as follows: (100—(specific binding in the presence of test material/specific binding in the absence of test material × 100)).

Data set [3] has as its target T2, rhP2Y12 receptor. The data set is described as follows: rhP2Y12 receptor binding assay with [3H]ADP (HEK293T membranes). As to conditions: for IC50: 3 nM [3H]ADP, HEK293T-rhP2Y12 membranes. The protocol: as §1
Another data set concerns the target T3, rhP2Y13 receptor (Homo sapiens, UniProt Q9BPV8).
T3 construct: expressed in transfected cells
T3 sequence (Q9BPV8 1-354): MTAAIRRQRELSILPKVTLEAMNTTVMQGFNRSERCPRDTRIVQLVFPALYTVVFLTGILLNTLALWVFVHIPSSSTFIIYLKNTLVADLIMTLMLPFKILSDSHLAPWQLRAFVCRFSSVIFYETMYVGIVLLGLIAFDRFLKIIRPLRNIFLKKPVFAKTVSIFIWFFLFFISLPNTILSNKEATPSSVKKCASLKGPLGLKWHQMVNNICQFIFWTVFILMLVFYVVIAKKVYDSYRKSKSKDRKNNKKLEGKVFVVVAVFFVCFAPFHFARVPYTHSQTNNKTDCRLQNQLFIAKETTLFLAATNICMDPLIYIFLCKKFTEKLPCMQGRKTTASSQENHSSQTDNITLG
As to the kind of experiment: rhP2Y13 receptor [3H]2-MeSADP binding assay (COS-7 membranes). As for the experimental part:
as §1

On the set-up of data set [4]: method as in PMID 25065553. As to conditions: side effect of ticagrelor; cited from earlier work.
The mark [5] stands for this setting: read-out: IC50 vs. [3H]-2-MeSADP.
[6] abbreviates: Homo sapiens, Platelet, 96-well plate.

T1 sequence (P47900 whole entry): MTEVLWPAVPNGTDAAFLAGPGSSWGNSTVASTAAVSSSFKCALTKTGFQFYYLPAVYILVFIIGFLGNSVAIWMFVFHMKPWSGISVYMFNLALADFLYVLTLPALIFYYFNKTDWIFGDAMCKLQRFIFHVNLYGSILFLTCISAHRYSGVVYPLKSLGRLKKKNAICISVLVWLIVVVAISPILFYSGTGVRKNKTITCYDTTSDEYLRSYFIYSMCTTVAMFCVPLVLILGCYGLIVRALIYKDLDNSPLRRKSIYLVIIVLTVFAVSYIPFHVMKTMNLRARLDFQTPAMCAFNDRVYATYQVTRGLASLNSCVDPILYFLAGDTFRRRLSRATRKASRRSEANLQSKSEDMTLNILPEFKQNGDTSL

Regarding “2-methylthioadenosine 5′-monophosphate [Compound 2-MeSAMP, reference compound]”, the IC50 (in general, the concentration that gives 50% inhibition) in data set [1] (96-well plate) amounted to 1.09 ± 0.16 µM. Further, the “inhibitory effect at P2Y1 receptor, in words” value (from here on “inhibitory effect”) on human P2Y1 receptor (100 nM MRS2365) is “did not exert an inhibitory effect”.

Regarding `Nc1ncnc2c1ncn2[C@@H]1O[C@H](COP(=O)(O)OP(=O)(O)O)[C@@H](O)[C@H]1O` [ADP, Adenosine 5′-diphosphate, reference compound], the half-inhibitory concentration (IC50) stood at 24.8 ± 2.09 µM at rhP2Y12 receptor [2] (setting [5]) and 0.19 ± 0.1 µM on rhP2Y12 receptor [3] (read-out: IC50 vs. [3H]ADP). In addition, in data set [1] (Homo sapiens, Platelet, 96-well plate, read-out: EC50 of ADP, concentration-dependent platelet stimulation), the EC50 was determined as 4.2 µM. Moreover, at rhP2Y12 receptor [3], the “fold higher potency of ADP than 2-MeSADP in competing with [3H]ADP” value was 90 fold.

For the compound `Nc1ncnc2c1ncn2[C@@H]1O[C@H](COP(=O)(O)OP(=O)(O)OP(=O)(O)O)[C@@H](O)[C@H]1O` [ATP, Adenosine 5′-triphosphate, reference compound], it took 2.14 ± 0.51 µM to reach half-maximal inhibition in data set [1] (setting [6]) (IC50).

As for `CSc1nc(N)c2ncn([C@@H]3O[C@H](COP(=O)(O)OP(=O)(O)O)[C@@H](O)[C@H]3O)c2n1` [Compound 2-MeSADP, reference compound], the IC50 was 0.12 ± 0.02 µM at rhP2Y12 receptor [2] (setting [5]) and 17.2 ± 4.62 µM on rhP2Y12 receptor [3] (read-out: IC50 vs. [3H]ADP).

As for `COc1cccc(-n2nc(C#N)c(Cl)cc2=O)c1` [Compound A, 4-chloro-1-(3-methoxyphenyl)-6-oxopyridazine-3-carbonitrile], the half-inhibitory concentration (IC50) on rhP2Y12 receptor [2] (setting [5]) is above 30 µM; in data set [1] (setting [6]), 8.04 ± 0.51 µM; at rhP2Y12 receptor [3] (read-out: IC50 vs. [3H]ADP) it was above 30 µM.

As to `Cn1sc(=O)c2cc(S(=O)(=O)NC3CC3)ccc21` [Compound B, N-cyclopropyl-1-methyl-3-oxo-2,1-benzothiazole-5-sulfonamide], the 50% inhibitory concentration (IC50) was above 30 µM at rhP2Y12 receptor [2] (setting [5]), 9.49 ± 1.15 µM in data set [1] (setting [6]) and above 30 µM at rhP2Y12 receptor [3] (read-out: IC50 vs. [3H]ADP).

For the compound `Cn1ncc(S(=O)(=O)Cc2ccccc2)c(Br)c1=O` [Compound C, 5-benzylsulfonyl-4-bromo-2-methylpyridazin-3-one], the values for the IC50 (at rhP2Y12 receptor [2] (setting [5]); in data set [1] (setting [6]); at rhP2Y12 receptor [3] (read-out: IC50 vs. [3H]ADP)) were above 30 µM, 4.03 ± 0.95 µM and above 30 µM, respectively.

In the case of `COc1ccc(C(=O)C=CSc2nncn2C)cc1` [Compound D, 1-(4-methoxyphenyl)-3-[(4-methyl-1,2,4-triazol-3-yl)sulfanyl]prop-2-en-1-one], the concentration for half-maximal inhibition (IC50) at rhP2Y12 receptor [2] (setting [5]) is above 30 µM; in data set [1] (setting [6]) it was 6.08 ± 0.11 µM; at rhP2Y12 receptor [3] (read-out: IC50 vs. [3H]ADP), above 30 µM.

Consider `CN(C)c1ccc(C(c2cc3c(cc2O)OCO3)N2CCOCC2)cc1` (stereo not shown) [Compound E, 6-[(4-dimethylamino-phenyl)-morpholin-4-yl-methyl]-benzo[1,3]dioxol-5-ol], for which the concentration for half-maximal inhibition (IC50) at rhP2Y12 receptor [2] (setting [5]) is 15.5 µM; in data set [1] (setting [6]), 6.21 ± 0.71 µM; at rhP2Y12 receptor [3] (read-out: IC50 vs. [3H]ADP) it was 8.3 µM and 8.33 µM. In addition, the “effect of pre-incubation / time on inhibition of ADP-induced platelet aggregation, in words” value in data set [1] is reported as “did not increase the potency”. Besides, on rhP2Y13 receptor (up to 100 μM), the “inhibition of [3H]2-MeS-ADP binding to rhP2Y13, in words” value is recorded as “did not inhibit”. Further, the “inhibitory effect” value at human P2Y1 receptor (100 nM MRS2365) is recorded as “did not exert an inhibitory effect”. Further, the “fold higher potency vs [3H]ADP than vs [3H]2-MeSADP” value on rhP2Y12 receptor [3] turned out to be 1.9 fold.

For the compound `N#Cc1nccnc1S(=O)(=O)c1cccs1` [Compound F, 3-thiophen-2-ylsulfonylpyrazine-2-carbonitrile], the “inhibition of [3H]-2-MeSADP binding to rhP2Y12, in words” value at rhP2Y12 receptor [2] is listed as “slightly inhibited”. The IC50 is above 30 µM on rhP2Y12 receptor [2] (setting [5]), 9.35 ± 2.19 µM in data set [1] (setting [6]) and above 30 µM at rhP2Y12 receptor [3] (read-out: IC50 vs. [3H]ADP). Moreover, the “inhibition of [3H]ADP binding to rhP2Y12, in words” value at rhP2Y12 receptor [3] is recorded as “slightly inhibited”.

For `CNc1ncnc2c1ncn2[C@H]1C[C@H](OP(=O)(O)O)[C@@H](COP(=O)(O)O)O1` [MRS2179, reference compound], the IC50 was determined as 1.1 ± 0.01 µM in data set [1] (96-well plate) and 0.66 µM on human P2Y1 receptor (100 nM MRS2365, read-out: IC50, block of MRS2365 action at P2Y1 receptor).

Consider `Cc1nc(N=Nc2cc([N+](=O)[O-])ccc2Cl)c(COP(=O)(O)O)c(C=O)c1O` [MRS2211], for which the IC50 at rhP2Y13 receptor (1 nM [3H]2-MeSADP, read-out: IC50, inhibition of [3H]2-MeS-ADP binding to rhP2Y13) amounted to 9.4 µM.

As for `CSc1nc(N)c2ncn([C@H]3[C@H](O)[C@H](O)[C@]4(COP(=O)(O)OP(=O)(O)O)C[C@H]34)c2n1` [MRS2365], the EC50 at human P2Y1 receptor (Ca2+ mobilization, NIH3T3-P2Y1 + Gq cells, read-out: EC50 for P2Y1 receptor activation) worked out at 0.03 µM.

As for `CCCSc1nc(N[C@@H]2C[C@H]2c2ccc(F)c(F)c2)c2nnn([C@@H]3C[C@H](OCCO)[C@@H](O)[C@H]3O)c2n1` [Ticagrelor, reference compound], the results for the 50% inhibitory concentration (IC50) (at rhP2Y12 receptor [2] (IC50 vs. [3H]-2-MeSADP); in data set [1] (setting [6]); at rhP2Y12 receptor [3] (IC50 vs. [3H]ADP)) were 0.04 ± 0.02 µM, 0.32 ± 0.02 µM and 8.4 ± 3.05 µM, respectively. Further, the “shortness of breath (dyspnea) incidence” value in data set [4] is 14%. Moreover, the “effect of pre-incubation / time on inhibition of ADP-induced platelet aggregation, in words” value in data set [1] is recorded as “time-dependent manner”. The “selectivity, rhP2Y13 in comparison to rhP2Y12” value at rhP2Y13 receptor ([3H]2-MeS-ADP binding) was above 1000 fold. The “inhibitory effect” value at human P2Y1 receptor (100 nM MRS2365) is reported as “did not exert an inhibitory effect”. In addition, the “fold lower potency vs [3H]ADP than vs [3H]2-MeSADP” value on rhP2Y12 receptor [3] turned out to be 210 fold.

Consider `Nc1ncnc2c1ncn2[C@@H]1O[C@H](COP(=O)(O)OP(=O)(O)O)[C@@H](O)[C@H]1O` [[^3H]ADP, reference compound], for which, at rhP2Y12 receptor [3] ([3H]ADP saturation binding, read-out: Kd of radioligand at rhP2Y12 (saturation, Scatchard)), the Kd worked out at 0.0097 µM.
